Test results reported in patent US20260076902A1, “LIQUID, STORAGE STABLE, DIRECTLY INJECTABLE, PANTOPRAZOLE FORMULATIONS, THEIR USES AND MANUFACTURING” (Etico Lifesciences Private Limited, priority 2024, published 2026).

Assay: Dilution with 0.9% sodium chloride solution, precipitation
Assay type: physicochemical
Settings: alpha tocopherol tested as stabilizer

behaviour upon dilution with 0.9% sodium chloride solution: precipitation was formed
SMILES: Cc1c(C)c2c(c(C)c1O)CC[C@@](C)(CCC[C@H](C)CCC[C@H](C)CCCC(C)C)O2 [Alpha tocopherol]
